Measurements published in ChEMBL document CHEMBL4699525, “Design and synthesis of new indanol-1,2,3-triazole derivatives as potent antitubercular and antimicrobial agents” (Bioorg Med Chem Lett, 2020).
≈ marks a conversion by molar mass, not a printed value.

What was measured:
Saccharomyces cerevisiae [1] = assay: Antifungal activity against Saccharomyces cerevisiae assessed as inhibition of fungal growth incubated for 24 hrs by agar well diffusion method; type: functional
Klebsiella aerogenes [2] = assay: Antibacterial activity against Enterobacter aerogenes assessed as inhibition of bacterial growth incubated for 24 hrs by agar well diffusion method; type: functional
Klebsiella aerogenes [3] = assay: Antibacterial activity against Enterobacter aerogenes assessed as inhibition of bacterial growth incubated for overnight by CLSI based method; type: functional
Bacillus subtilis = assay: Antibacterial activity against Bacillus subtilis assessed as inhibition of bacterial growth incubated for 24 hrs by agar well diffusion method; type: functional
Candida albicans [4] = assay: Antifungal activity against Candida albicans assessed as inhibition of […] growth incubated for overnight by CLSI based method; type: functional
Staphylococcus aureus [5] = assay: Antibacterial activity against Staphylococcus aureus assessed as inhibition of bacterial growth incubated for overnight by CLSI based method; type: functional
Staphylococcus aureus [6] = assay: Antibacterial activity against Staphylococcus aureus assessed as inhibition of bacterial growth incubated for 24 hrs by agar well diffusion method; type: functional
Shigella boydii [7] = assay: Antibacterial activity against Shigella boydii assessed as inhibition of bacterial growth incubated for 24 hrs by agar well diffusion method; type: functional
Aspergillus niger [8] = assay: Antifungal activity against Aspergillus niger assessed as inhibition of […] growth incubated for overnight by CLSI based method; type: functional
Shigella boydii [9] = assay: Antibacterial activity against Shigella boydii assessed as inhibition of bacterial growth incubated for overnight by CLSI based method; type: functional
Saccharomyces cerevisiae [10] = assay: Antifungal activity against Saccharomyces cerevisiae assessed as inhibition of […] growth incubated for overnight by CLSI based method; type: functional
Bacillus cereus = assay: Antibacterial activity against Bacillus cereus assessed as inhibition of bacterial growth incubated for 24 hrs by agar well diffusion method; type: functional
[11] = molecular target: T1, Enoyl-[acyl-carrier-protein] reductase [NADH] (Mycobacterium tuberculosis) (UniProt P9WGR1); assay: Inhibition of InhA in Mycobacterium tuberculosis H37Rv assessed antitubercular activity by measuring inhibition of bacterial growth incubated for 7 days by MABA assay; conditions: time 7.0 day
T1 sequence (whole entry): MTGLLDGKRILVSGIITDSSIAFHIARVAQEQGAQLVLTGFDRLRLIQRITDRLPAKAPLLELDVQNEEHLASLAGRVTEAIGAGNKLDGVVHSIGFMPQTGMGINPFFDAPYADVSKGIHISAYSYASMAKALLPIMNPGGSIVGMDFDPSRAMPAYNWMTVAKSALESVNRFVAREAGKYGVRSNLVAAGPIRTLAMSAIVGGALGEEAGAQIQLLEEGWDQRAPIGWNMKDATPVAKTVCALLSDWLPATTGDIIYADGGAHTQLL

Candida albicans [12] = assay: Antifungal activity against Candida albicans assessed as inhibition of fungal growth incubated for 24 hrs by agar well diffusion method; type: functional
Salmonella typhi = assay: Antibacterial activity against Salmonella typhi assessed as inhibition of bacterial growth incubated for 24 hrs by agar well diffusion method; type: functional, Salmonella enterica subsp. enterica serovar Typhi
Pseudomonas aeruginosa = assay: Antibacterial activity against Pseudomonas aeruginosa assessed as inhibition of bacterial growth incubated for 24 hrs by agar well diffusion method; type: functional
Escherichia coli = assay: Antibacterial activity against Escherichia coli assessed as inhibition of bacterial growth incubated for 24 hrs by agar well diffusion method; type: functional
Aspergillus niger [13] = assay: Antifungal activity against Aspergillus niger assessed as inhibition of fungal growth incubated for 24 hrs by agar well diffusion method; type: functional
[14] = test system: Salmonella enterica subsp. enterica serovar Abony; assay: Antibacterial activity against Salmonella abony assessed as inhibition of bacterial growth incubated for 24 hrs by agar well diffusion method; type: functional
[15] = Cytotoxicity against human HEK293 cells assessed as inhibition of cell growth at 25 uM incubated for 48 hrs by MTT assay; type: cell-based

Row | Compound | diameter of the inhibition zone (DIZ) (Saccharomyces cerevisiae [1]) [mm] | diameter of the inhibition zone (DIZ) (Klebsiella aerogenes [2]) [mm] | MIC (Klebsiella aerogenes [3]) [µg/mL] | diameter of the inhibition zone (DIZ) (Bacillus subtilis) [mm] | MIC (Candida albicans [4]) [µg/mL] | MIC (Staphylococcus aureus [5]) [µg/mL] | diameter of the inhibition zone (DIZ) (Staphylococcus aureus [6]) [mm] | diameter of the inhibition zone (DIZ) (Shigella boydii [7]) [mm] | MIC (Aspergillus niger [8]) [µg/mL] | MIC (Shigella boydii [9]) [µg/mL] | MIC (Saccharomyces cerevisiae [10]) [µg/mL] | diameter of the inhibition zone (DIZ) (Bacillus cereus) [mm] | MIC [11] [µM] | diameter of the inhibition zone (DIZ) (Candida albicans [12]) [mm] | diameter of the inhibition zone (DIZ) (Salmonella typhi) [mm] | diameter of the inhibition zone (DIZ) (Pseudomonas aeruginosa) [mm] | diameter of the inhibition zone (DIZ) (Escherichia coli) [mm] | diameter of the inhibition zone (DIZ) (Aspergillus niger [13]) [mm] | diameter of the inhibition zone (DIZ) [14] [mm] | inhibition at 48 h, 25 µM [15] [%]
1 | COc1ccc(-n2cc(COc3ccc4c(c3)CCC4)nn2)cc1 | 5 | 9 | 130 (≈ 405 µM) | 10 | 80 (≈ 249 µM) | 160 (≈ 498 µM) | 8 | 11 | 180 (≈ 560 µM) | 70 (≈ 218 µM) | 210 (≈ 653 µM) | 5 | 25 (≈ 8.03 µg/mL) | 11 | 8 | 12 | 10 | 6 | 12 | 21.1
2 | Cc1ccc([N+](=O)[O-])cc1-n1cc(COc2ccc3c(c2)CCC3)nn1 | 6 | 11 | 60 (≈ 171 µM) | 12 | 40 (≈ 114 µM) | 50 (≈ 143 µM) | 13 | 11 | 155 (≈ 442 µM) | 60 (≈ 171 µM) | 150 (≈ 428 µM) | 12 | 12.5 (≈ 4.38 µg/mL) | 15 | 11 | 9 | 11 | 6 | 9 | 26.5
3 | Cc1ccc(-n2cc(COc3ccc4c(c3)CCC4)nn2)c(C)c1 | 12 | 10 | 75 (≈ 235 µM) | 10 | 60 (≈ 188 µM) | 150 (≈ 470 µM) | 7 | 11 | 70 (≈ 219 µM) | 55 (≈ 172 µM) | 50 (≈ 157 µM) | 10 | 1.56 (≈ 0.498 µg/mL) | 11 | 12 | 13 | 12 | 10 | 9 | 19.9
4 | Brc1ccccc1-n1cc(COc2ccc3c(c2)CCC3)nn1 | 10 | 12 | 120 (≈ 324 µM) | 10 | 130 (≈ 351 µM) | 90 (≈ 243 µM) | 16 | 12 | 170 (≈ 459 µM) | 140 (≈ 378 µM) | 110 (≈ 297 µM) | 9 | 6.25 (≈ 2.31 µg/mL) | 9 | 11 | 13 | 11 | 7 | 13 | 16.5
5 | COc1ccccc1NC(=O)Cn1cc(COc2ccc3c(c2)CCC3)nn1 | 10 | 13 | 95 (≈ 251 µM) | 10 | 180 (≈ 476 µM) | 120 (≈ 317 µM) | 12 | 12 | 170 (≈ 449 µM) | 150 (≈ 396 µM) | 210 (≈ 555 µM) |  | 6.25 (≈ 2.37 µg/mL) | 12 | 12 | 8 | 10 | 10 | 11 | 23.4
